# Laboratory results published in publication PMC6895180 (Nature Communications, 2019).
# Where “and” joins values, the source holds several entries; their conditions need not be identical. Identical values can stand only once. Like-named read-outs stand apart in the source and are kept apart here.
# Legend:
# [1] = Cytotoxicity on MRC-5 fibroblasts (resazurin); assay type: cell-based, human; conditions: human, MRC-5SV2 human embryonic lung fibroblasts
# In short: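 MRC-5SV2 cells (3 × 10^4 cells mL^−1) in MEM with 5% foetal calf serum exposed to compounds for 3 days at 37 °C, 5% CO2. Viability read by resazurin fluorescence (10 µg mL^−1 final, 4 h; λex 550/λem 590 nm) against untreated and medium controls; EC50 derived.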
# P2 transporter (TbAT1) = P2 transporter (TbAT1) (Trypanosoma brucei brucei, UniProt Q9Y0I0); assay: cell-based; conditions: for Ki: P2 transporter Ki
# Procedure: Non-specific association of radiolabel with the cell pellet was determined using an identical incubation in the presence of saturating (1 mM) unlabelled adenosine.
# [2] = system: T. brucei BSF s427 wildtype cells; assay: Growth assays of T. brucei (trypanocidal/trypanostatic effect); assay type: cell-based, Trypanosoma brucei
# Procedure: Growth assays of T. brucei
# To test the effect of the novel adenosine analogues on the growth of T. brucei BSF, s427 wildtype cells were seeded at 1×10^5 cells mL-1 in 5 mL of HMI-9 medium with 10% FBS and treated with compounds […]
# cells were also incubated in drug-free medium under the same conditions. 2 μM of 2’-deoxycoformycin were added to all cultures to avoid any potential effect of serum adenosine deaminase on the activity of test compounds and cordycepin.1
# Cells were manually counted in Neubauer chambers at 0, 2, 4, 6, 8, 12, 24, 36 and 48 h after addition of […]
# the drugs. […]
# After 6 and 12 h after addition of drugs, approximately 2×10^6 cells were harvested from each group and applied to glass slides pre-treated with poly-L-lysine, left to settle for 5 min and fixed with 4% formaldehyde for 4 min. The formaldehyde was neutralised by addition of 100 mM glycine (20 min).
# Cells were washed once with PBS and blocked for 1 h with 1% BSA/0.2% Tween-20 in PBS. Cells were […]
# Sequence of P2 transporter (TbAT1) (Q9Y0I0 entry or part of it): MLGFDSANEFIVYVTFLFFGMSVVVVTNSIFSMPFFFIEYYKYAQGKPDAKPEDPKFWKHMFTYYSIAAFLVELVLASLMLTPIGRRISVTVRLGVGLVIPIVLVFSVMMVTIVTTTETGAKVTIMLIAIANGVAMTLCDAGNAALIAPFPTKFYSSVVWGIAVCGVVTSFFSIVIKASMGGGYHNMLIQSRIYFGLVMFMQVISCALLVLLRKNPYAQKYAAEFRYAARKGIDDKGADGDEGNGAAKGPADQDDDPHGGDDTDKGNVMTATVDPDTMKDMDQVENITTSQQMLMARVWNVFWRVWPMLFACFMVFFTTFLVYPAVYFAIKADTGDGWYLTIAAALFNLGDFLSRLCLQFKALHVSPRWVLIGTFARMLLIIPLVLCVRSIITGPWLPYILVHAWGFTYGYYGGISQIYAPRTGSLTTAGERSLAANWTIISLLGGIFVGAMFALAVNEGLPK
structure (smiles),measurement,setting,value
"Nc1ncnc2c1ccn2[C@@H]1O[C@H](CO)C[C@H]1O [Compound 9, 3’-deoxytubercidin]",EC50 at 3 day,"[1]; cytotoxicity in human MRC-5 fibroblasts, mean and SEM, read-out: MRC-5 EC50",> 64000 nM
same,EC50 at 3 day,"[1]; source data, read-out: MRC-5 EC50, single measurements",> 64000 nM
same,"P2 Ki, fold lower than the Km value for adenosine",P2 transporter (TbAT1),roughly 3 fold
same,energy advantage at P2 versus adenosine,P2 transporter (TbAT1),roughly 3 kJ mol^−1
same,P2 transporter ΔG^0,P2 transporter (TbAT1); Gibbs free energy from −RT ln(Ki),-9.3 kcal/mol
same,IC50,"P2 transporter (TbAT1); P2 transporter IC50, single experiments, [L] 0.033 or 0.1 per experiment",133 nM and 281 nM and 171 nM and 85 nM
same,Ki,"P2 transporter (TbAT1); AVG, source data",147 nM
same,Ki,"P2 transporter (TbAT1); inhibition of [3H]adenosine uptake, mean ± SEM, n = 3",149 ± 30 nM
same,Ki,"P2 transporter (TbAT1); single experiments, Cheng–Prusoff from IC50",111 nM and 236 nM and 160 nM and 80 nM
same,P2 transporter δ(ΔG^0),P2 transporter (TbAT1); in comparison to adenosine,-0.741 kcal/mol
same,AVG of cells/mL,"[2]; 2xEC50, 2 h, experiment 1",105000 cells/mL
same,Cells/mL,"[2]; 2xEC50, 2 h, experiment 1",117500 Cells/mL and 92500 Cells/mL
same,Counts,"[2]; 2xEC50, 2 h, experiment 1",47 and 37
same,AVG of cells/mL,"[2]; 2xEC50, 2 h, experiment 2",147500 cells/mL
same,Cells/mL,"[2]; 2xEC50, 2 h, experiment 2",140000 Cells/mL and 155000 Cells/mL
same,Counts,"[2]; 2xEC50, 2 h, experiment 2",56 and 62
same,AVG of cells/mL,"[2]; 2xEC50, 4 h, experiment 1",158750 cells/mL
same,Cells/mL,"[2]; 2xEC50, 4 h, experiment 1",160000 Cells/mL and 157500 Cells/mL
same,Counts,"[2]; 2xEC50, 4 h, experiment 1",63 and 64
same,AVG of cells/mL,"[2]; 2xEC50, 4 h, experiment 2",186250 cells/mL
same,Cells/mL,"[2]; 2xEC50, 4 h, experiment 2",177500 Cells/mL and 195000 Cells/mL
same,Counts,"[2]; 2xEC50, 4 h, experiment 2",78 and 71
same,AVG of cells/mL,"[2]; 2xEC50, 6 h, experiment 1",160000 cells/mL
same,Cells/mL,"[2]; 2xEC50, 6 h, experiment 1",170000 Cells/mL and 150000 Cells/mL
same,Counts,"[2]; 2xEC50, 6 h, experiment 1",68 and 60
same,AVG of cells/mL,"[2]; 2xEC50, 6 h, experiment 2",210000 cells/mL
same,Cells/mL,"[2]; 2xEC50, 6 h, experiment 2",192500 Cells/mL and 227500 Cells/mL
same,Counts,"[2]; 2xEC50, 6 h, experiment 2",77 and 91
same,AVG of cells/mL,"[2]; 2xEC50, 8 h, experiment 1",167500 cells/mL
same,Cells/mL,"[2]; 2xEC50, 8 h, experiment 1",162500 Cells/mL and 172500 Cells/mL
same,Counts,"[2]; 2xEC50, 8 h, experiment 1",65 and 69
same,AVG of cells/mL,"[2]; 2xEC50, 8 h, experiment 2",156250 cells/mL
same,Cells/mL,"[2]; 2xEC50, 8 h, experiment 2",162500 Cells/mL and 150000 Cells/mL
same,Counts,"[2]; 2xEC50, 8 h, experiment 2",65 and 60
same,AVG of cells/mL,"[2]; 2xEC50, 12 h, experiment 1",152500 cells/mL
same,Cells/mL,"[2]; 2xEC50, 12 h, experiment 1",165000 Cells/mL and 140000 Cells/mL
same,Counts,"[2]; 2xEC50, 12 h, experiment 1",66 and 56
same,AVG of cells/mL,"[2]; 2xEC50, 12 h, experiment 2",145000 cells/mL
same,Cells/mL,"[2]; 2xEC50, 12 h, experiment 2",145000 Cells/mL
same,Counts,"[2]; 2xEC50, 12 h, experiment 2",58
same,AVG of cells/mL,"[2]; 2xEC50, 24 h, experiment 1",86250 cells/mL
same,Cells/mL,"[2]; 2xEC50, 24 h, experiment 1",77500 Cells/mL and 95000 Cells/mL
same,Counts,"[2]; 2xEC50, 24 h, experiment 1",31 and 38
same,AVG of cells/mL,"[2]; 2xEC50, 24 h, experiment 2",47500 cells/mL
same,Cells/mL,"[2]; 2xEC50, 24 h, experiment 2",37500 Cells/mL and 57500 Cells/mL
same,Counts,"[2]; 2xEC50, 24 h, experiment 2",15 and 23
same,AVG of cells/mL,"[2]; 2xEC50, 36 h, experiment 1",76250 cells/mL
same,Cells/mL,"[2]; 2xEC50, 36 h, experiment 1",87500 Cells/mL and 65000 Cells/mL
same,Counts,"[2]; 2xEC50, 36 h, experiment 1",35 and 26
same,AVG of cells/mL,"[2]; 2xEC50, 36 h, experiment 2",6250 cells/mL
same,Cells/mL,"[2]; 2xEC50, 36 h, experiment 2",7500 Cells/mL and 5000 Cells/mL
same,Counts,"[2]; 2xEC50, 36 h, experiment 2",3 and 2
same,Cells/mL,"[2]; 2xEC50, 48 h, experiment 1",0 Cells/mL
same,Counts,"[2]; 2xEC50, 48 h, experiment 1",0
same,AVG of cells/mL,"[2]; 2xEC50, 48 h, experiment 2",2500 cells/mL
same,effect on T. brucei bloodstream forms in culture (cidal/static),[2]; 2× and 5× EC50,trypanocidal
same,AVG of cells/mL,"[2]; 5xEC50, 2 h, experiment 1",131250 cells/mL
same,Cells/mL,"[2]; 5xEC50, 2 h, experiment 1",135000 Cells/mL and 127500 Cells/mL
same,Counts,"[2]; 5xEC50, 2 h, experiment 1",54 and 51
same,AVG of cells/mL,"[2]; 5xEC50, 2 h, experiment 2",135000 cells/mL
same,Cells/mL,"[2]; 5xEC50, 2 h, experiment 2",127500 Cells/mL and 142500 Cells/mL
same,Counts,"[2]; 5xEC50, 2 h, experiment 2",51 and 57
same,AVG of cells/mL,"[2]; 5xEC50, 4 h, experiment 1",138750 cells/mL
same,Cells/mL,"[2]; 5xEC50, 4 h, experiment 1",117500 Cells/mL and 160000 Cells/mL
same,Counts,"[2]; 5xEC50, 4 h, experiment 1",64 and 47
same,AVG of cells/mL,"[2]; 5xEC50, 4 h, experiment 2",181250 cells/mL
same,Cells/mL,"[2]; 5xEC50, 4 h, experiment 2",177500 Cells/mL and 185000 Cells/mL
same,Counts,"[2]; 5xEC50, 4 h, experiment 2",74 and 71
same,AVG of cells/mL,"[2]; 5xEC50, 6 h, experiment 1",140000 cells/mL
same,Cells/mL,"[2]; 5xEC50, 6 h, experiment 1",127500 Cells/mL and 152500 Cells/mL
same,Counts,"[2]; 5xEC50, 6 h, experiment 1",51 and 61
same,AVG of cells/mL,"[2]; 5xEC50, 6 h, experiment 2",145000 cells/mL
same,Cells/mL,"[2]; 5xEC50, 6 h, experiment 2",135000 Cells/mL and 155000 Cells/mL
same,Counts,"[2]; 5xEC50, 6 h, experiment 2",54 and 62
same,AVG of cells/mL,"[2]; 5xEC50, 8 h, experiment 1",136250 cells/mL
same,Cells/mL,"[2]; 5xEC50, 8 h, experiment 1",115000 Cells/mL and 157500 Cells/mL
same,Counts,"[2]; 5xEC50, 8 h, experiment 1",46 and 63
same,AVG of cells/mL,"[2]; 5xEC50, 8 h, experiment 2",137500 cells/mL
same,Cells/mL,"[2]; 5xEC50, 8 h, experiment 2",135000 Cells/mL and 140000 Cells/mL
same,Counts,"[2]; 5xEC50, 8 h, experiment 2",54 and 56
same,AVG of cells/mL,"[2]; 5xEC50, 12 h, experiment 1",127500 cells/mL
same,Cells/mL,"[2]; 5xEC50, 12 h, experiment 1",135000 Cells/mL and 120000 Cells/mL
same,Counts,"[2]; 5xEC50, 12 h, experiment 1",54 and 48
same,AVG of cells/mL,"[2]; 5xEC50, 12 h, experiment 2",125000 cells/mL
same,Cells/mL,"[2]; 5xEC50, 12 h, experiment 2",125000 Cells/mL
same,Counts,"[2]; 5xEC50, 12 h, experiment 2",50
same,AVG of cells/mL,"[2]; 5xEC50, 24 h, experiment 1",47500 cells/mL
same,Cells/mL,"[2]; 5xEC50, 24 h, experiment 1",45000 Cells/mL and 50000 Cells/mL
same,Counts,"[2]; 5xEC50, 24 h, experiment 1",18 and 20
same,AVG of cells/mL,"[2]; 5xEC50, 24 h, experiment 2",25000 cells/mL
same,Cells/mL,"[2]; 5xEC50, 24 h, experiment 2",27500 Cells/mL and 22500 Cells/mL
same,Counts,"[2]; 5xEC50, 24 h, experiment 2",11 and 9
same,AVG of cells/mL,"[2]; 5xEC50, 36 h, experiment 1",22500 cells/mL
same,Cells/mL,"[2]; 5xEC50, 36 h, experiment 1",25000 Cells/mL and 20000 Cells/mL
same,Counts,"[2]; 5xEC50, 36 h, experiment 1",10 and 8
same,AVG of cells/mL,"[2]; 5xEC50, 36 h, experiment 2",3750 cells/mL
same,Cells/mL,"[2]; 5xEC50, 36 h, experiment 2",5000 Cells/mL and 2500 Cells/mL
same,Counts,"[2]; 5xEC50, 36 h, experiment 2",2 and 1
same,Cells/mL,"[2]; 5xEC50, 48 h, experiment 1",0 Cells/mL
same,Counts,"[2]; 5xEC50, 48 h, experiment 1",0
same,AVG of cells/mL,"[2]; 5xEC50, 48 h, experiment 2",0 cells/mL
same,Cells/mL,"[2]; 5xEC50, 48 h, experiment 2",0 Cells/mL
same,Counts,"[2]; 5xEC50, 48 h, experiment 2",0
